Results reported in patent US20250120399A1, “METHODS AND COMPOSITIONS FOR ALTERING METABOLITES IN VITIS SPP. AND PREVENTING PESTS AND PATHOGENS” (Impello Biosciences, Inc., priority 2022, published 2025).
Several values for one entry are separate records, joined by “and”; a condition that tells them apart may be missing. Identical values can stand only once.

Columns and labels:
Botrytis cinerea = experiment: Laccase analysis for prevalence of Botrytis, 2021 field trial (Example 3); type: in vivo; conditions: cabernet sauvignon; approx. 5 mM MDJ at 50 gal/acre, four applications
Experimental: MDJ was applied to fields of grape to investigate the efficacy of MDJ in preventing bunch rot on (Botrytis cinerea) and powdery mildew (Erysiphe necator) on grapes. […] (1 liter) per 50 gallons of water (approximately a 5 mM solution of MDJ). The composition was then applied (at a rate of 50 gallons per acre) to three acres (1245 vines/acre) of a cabernet sauvignon variety grown in Napa Valley, CA. There was a total of four applications between June and September using a ground spray rig. To investigate the prevalence of Botrytis, the enzyme laccase was analyzed. Laccase can negatively impact wine by causing premature browning of bottled white wine and color degradation in red wine. The MDJ treated group had 2 units/ml, whereas the control (grower standard) had 5 units/ml. This level in the control group means that Botrytis problems can be expected during the wine making process, whereas in the MDJ treated group, the value of 2 units/ml means there will be no issues with Botrytis during the wine making process.

[1] = system: Black seedless grapes (Vitis labrusca); experiment: Red grape panel analysis (ETS Laboratories), black seedless grapes (Example 5); type: in vivo; conditions: for Fruit catechin: ABCDE, Aug. 18, 2022
Experimental: Field trials were conducted in California 2022 (a dry year) to investigate the efficacy of MDJ in preventing Sour Rot caused by Aspergillus carbonarius (also known as summer bunch rot, abbreviated ASPECA in Table 7). Black seedless grapes (Vitis labrusca) were used in this trial. Four vines were used per plot. The plots were arranged in a randomized complete block design with six replicates (plots) per treatment. The plots were sprayed five times (ABCDE) at a rate of 500 gal/AC.
Treatments consisted of MDJ at 32 oz and 48 oz/A. A treatment of Regalia® at 1.5 qt/100 gal and Stargus® at 2 qt/100 gal was included for comparative purposes. Application D occurred at 5-10% veraison. Application E occurred at 40% veraison.
A randomly selected sample of approximately twenty wine grapes was used to evaluate the Brix and titratable acid. Another randomly selected sample (>500 g) was shipped to ETS Laboratories (Paso Robles, CA) for a red grape panel analysis (catechin, quercetin glycosides, tannin, polymeric anthocyanins, total anthocyanins, catechin/tannin index, and polymeric anthocyanins/tannin index). […] Total anthocyanins increased over 17% (449.1 in untreated controls compared to 529.3 in the group treated with 48 oz/A MDJ). An increase in quercetin glycosides, tannin, and polymeric anthocyanins, was also observed in MDJ treated plants (Table 8), as well as titratable acid (Table 9).

[2] = system: Grapevine (Malbec variety); experiment: Leaf sap Brix by refractometer, Malbec field trial (Example 1); type: in vivo, Vitis vinifera; conditions: for Brix, individual leaf: leaf no. 1-25, one line per leaf
Experimental: An eliciting composition and methods of use to alter metabolite production were tested on 6 acres of a Malbec variety planted in 1999 in Napa Valley, California. Plants were spaced 5′×10′ (900 vines per acre) and grouped into randomized blocks of 900 vines per group, with six replicates covering three acres for the treatment group, and six replicates covering three acres for the control group. The treatment group received two applications of 32 oz of MDJ applied at a rate of 100 gallons per acre (2.5 mM), once prior to veraison on Aug. 9, 2021 and again when 5-10% of berries were starting to blush (veraison) using a ground spray rig (backpack sprayer). From within each replicate, three plants were selected at random, and 25 leaves from each plant were randomly selected for analysis. The internal sap of the leaves was tested using a refractometer on the days shown below in Table 4 and FIG. 1. Data from each replicate was averaged (25 leaves from each plant, 3 plants).

[3] = fruit, Aug. 18, 2022, 32 oz/a, applications ABCDE
[4] = fruit, Aug. 18, 2022, 48 oz/a, applications ABCDE
[5] = Malbec, 2.5 mM MDJ, average of all replicate groups sampled
[6] = Replicate 1 sampled on Aug. 15, 2021, MDJ treated Plant #1

CCCCCC1C(=O)CCC1CC(=O)OC (stereo not shown) [MDJ, methyl dihydrojasmonate]
Laccase (Botrytis cinerea): 2 units/ml | Fruit catechin ([1]; 32 oz/a): 0.8b mg/L | Increase of total anthocyanins vs untreated controls ([1]; 48 oz/A MDJ): over 17% | total anthocyanins ([1]; 48 oz/A MDJ): 529.3 | Fruit catechin ([1]; 48 oz/a): 2.6a mg/L | Catechin vs untreated ([1]; MDJ treated plants): increase | Polymeric anthocyanins vs untreated ([1]; MDJ treated plants): increase | Quercetin glycosides vs untreated ([1]; MDJ treated plants): increase | Tannin vs untreated ([1]; MDJ treated plants): increase | catechin/tannin index [1, 3]: 0.0— | polymeric anthocyanins [1, 3]: 13.5— mg/L | polymeric anthocyanins/tannin index [1, 3]: 0.0312— | quercetin glycosides [1, 3]: 89.8— mg/L | tannin [1, 3]: 432.0— mg/L | total anthocyanins [1, 3]: 388.3— mg/L | catechin/tannin index [1, 4]: 0.0— | polymeric anthocyanins [1, 4]: 14.7— mg/L | polymeric anthocyanins/tannin index [1, 4]: 0.0304— | quercetin glycosides [1, 4]: 113.2— mg/L | tannin [1, 4]: 483.2— mg/L | total anthocyanins [1, 4]: 529.3— mg/L | Brix, individual leaf ([2]; Malbec, 2.5 mM MDJ, Replicate 1 sampled on Aug. 15, 2021, MDJ treated Plant #1): 21.0 and 20.0 (2×) and 19.0 (2×) and 19.8 (3×) and 19.5 (3×) and 18.7 (2×) and 19.4 (2×) and 20.5 (2×) and 18.9 (5×) and 18.4 and 19.9 (2×) | Brix, individual leaf ([2]; Malbec, 2.5 mM MDJ, Replicate 1 sampled on Aug. 15, 2021, MDJ treated Plant #2): 18.8 and 22.1 and 19.6 and 18.7 and 18.9 (2×) and 19.7 (2×) and 19.0 (2×) and 21.0 (2×) and 20.1 and 19.2 (2×) and 21.1 and 21.8 and 19.1 (2×) and 18.3 and 18.0 and 18.6 and 22.8 and 19.5 and 19.3 | Brix, individual leaf ([2]; Malbec, 2.5 mM MDJ, Replicate 1 sampled on Aug. 15, 2021, MDJ treated Plant #3): 19.1 and 19.7 (2×) and 19.0 (2×) and 21.0 and 21.8 (2×) and 19.2 (2×) and 20.0 and 19.10 and 19.00 (2×) and 19.30 (2×) and 19.60 and 19.40 (2×) and 18.80 and 18.90 (2×) and 19.6 and 18.3 and 18.9 | Brix, individual leaf ([2]; Malbec, 2.5 mM MDJ, Replicate 2 sampled on Sep. 22, 2021, MDJ treated Plant #1): 23.9 and 26.3 and 23.4 and 26.8 and 24.3 and 23.1 and 25.0 and 22.9 | Brix, individual leaf ([2]; Malbec, 2.5 mM MDJ, Replicate 2 sampled on Sep. 22, 2021, MDJ treated Plant #2): 26.5 and 25.5 and 24.8 and 24.9 and 26.7 and 23.8 and 24.0 and 25.0 | Brix, individual leaf ([2]; Malbec, 2.5 mM MDJ, Replicate 2 sampled on Sep. 22, 2021, MDJ treated Plant #3): 25.00 (2×) and 19.90 (2×) and 22.40 and 23.80 and 19.30 and 24.60 and 24.50 | MDJ TREATED averages, BRIX METRIC Juice-SAP [2, 5]: 26.1 | Percent increase of Brix, MDJ treated vs control [2, 5]: 44.5% | Percent increase of Brix, MDJ treated vs control ([2]; Malbec, 2.5 mM MDJ, replicate group 2, 22-Sep): 59.4% | Percent increase of Brix, MDJ treated vs control ([2]; Malbec, 2.5 mM MDJ, replicate group 3, 30-Sep): 93.3% | Percent increase of Brix, MDJ treated vs control ([2]; Malbec, 2.5 mM MDJ, replicate group 4, 5-Oct): 46.3% | Percent increase of Brix, MDJ treated vs control ([2]; Malbec, 2.5 mM MDJ, replicate group 5, 10-Oct): 25% | Percent increase of Brix, MDJ treated vs control ([2]; Malbec, 2.5 mM MDJ, replicate group 6, 30-Oct): 62.5% | MDJ TREATED averages, BRIX METRIC Juice-SAP ([2]; Malbec, two applications of 32 oz MDJ at 100 gal/acre (2.5 mM), replicate group 1, 15-Aug): 19.6 | MDJ TREATED averages, BRIX METRIC Juice-SAP ([2]; Malbec, two applications of 32 oz MDJ at 100 gal/acre (2.5 mM), replicate group 2, 22-Sep): 24.4 | MDJ TREATED averages, BRIX METRIC Juice-SAP ([2]; Malbec, two applications of 32 oz MDJ at 100 gal/acre (2.5 mM), replicate group 3, 30-Sep): 29.0 | MDJ TREATED averages, BRIX METRIC Juice-SAP ([2]; Malbec, two applications of 32 oz MDJ at 100 gal/acre (2.5 mM), replicate group 4, 5-Oct): 30.0 | MDJ TREATED averages, BRIX METRIC Juice-SAP ([2]; Malbec, two applications of 32 oz MDJ at 100 gal/acre (2.5 mM), replicate group 5, 10-Oct): 27.5 | MDJ TREATED averages, BRIX METRIC Juice-SAP ([2]; Malbec, two applications of 32 oz MDJ at 100 gal/acre (2.5 mM), replicate group 6, 30-Oct): 26.0 | Plant Brix vs control ([2]; Malbec, two applications of MDJ (2.5 mM)): increase in plant Brix | % BRIX [2, 6]: 77.9% | AVG Brix of 25 leaves [2, 6]: 19.5
